Experiments:
Assay type in all cases: cell-based
[1] = tested on: H69-GLI2 versus H69-wt SCLC cells; test: Drug dose response, cell viability after 72 hours; conditions: single agent, experiment H69-GLI1 and H69-GLI2 versus H69-wt (FIG. 1A/1B)
Procedure: (§1) (A) Drug-dose response experiment in H69-GLI1 and H69-GLI2 versus H69-wt for cisplatin. […] (C) Drug-dose response experiment in H69-GLI1 versus H69-wt for cisplatin. Methods. Two SCLC cell lines, H69 and H526, were transduced with a GLI1 over-expressing (o/e) vector (Kasper et al, 2007) to create two lines expressing the gene: H69-GLI1 and H526-GLI1. GLI1 expression was verified by qRT-PCR. Cellular proliferation was measured over a 96-hour period. To study the drug dose response, GLI1 o/e and parental lines were treated with single-agent or combination dosing of cisplatin and etoposide, and cell viability was assessed after 72 hours. Relative GLI1 expression was compared with cisplatin response in four additional SCLC cell lines (H146, […], […]). Gene expression analysis was performed on H69-GLI1 and H69 parental cells, with two replicates for each, using Agilent (Agilent Technologies, Santa Clara, Calif.) 44K expression arrays. Data was normalized and analyzed using Genespring software (Agilent Technologies, Santa Clara, Calif.).

[2] = tested on: H526-GLI1 versus H526-wt SCLC cells; test: Drug dose response, cell viability after 72 hours, GLI1 over-expressing vs parental line; conditions: H526-GLI1 compared to H526-wt
Procedure: Methods. Two SCLC cell lines, H69 and H526, were transduced with a GLI1 over-expressing (o/e) vector (Kasper et al, 2007) to create two lines expressing the gene: H69-GLI1 and H526-GLI1. GLI1 expression was verified by qRT-PCR. Cellular proliferation was measured over a 96-hour period. To study the drug dose response, GLI1 o/e and parental lines were treated with single-agent or combination dosing of cisplatin and etoposide, and cell viability was assessed after 72 hours. Relative GLI1 expression was compared with cisplatin response in four additional SCLC cell lines (H146, […], […]). Gene expression analysis was performed on H69-GLI1 and H69 parental cells, with two replicates for each, using Agilent (Agilent Technologies, Santa Clara, Calif.) 44K expression arrays. Data was normalized and analyzed using Genespring software (Agilent Technologies, Santa Clara, Calif.).

[3] = tested on: H69-GLI1 versus H69-wt SCLC cells; test: as above
Procedure: as §1

[4] = single agent, experiment H69-GLI1 and H69-GLI2 versus H69-wt (FIG. 1A/1B), viability after 72 hours

Row | SMILES | fold change between H69-GLI2 and H69-wt in drug-dose response [1] [fold] | change in cisplatin resistance [2] | shift in cisplatin resistance ([3]; H69-GLI1 compared to H69-wt, drug dose response, FIG. 1) [fold] | fold change between H69-GLI1 and H69-wt in drug-dose response ([3]; experiment H69-GLI1 versus H69-wt only (FIG. 1C)) [fold] | fold change between H69-GLI1 and H69-wt in drug-dose response [3, 4] [fold]
1 | N.N.[Cl][Pt][Cl] [cisplatin, cis-diamminedichloroplatinum(II)] | 1.21 | no significant change | ≥ 1.5 | 2.77 | 1.76
2 | COc1cc([C@@H]2c3cc4c(cc3[C@@H](O[C@@H]3O[C@@H]5CO[C@@H](C)O[C@H]5[C@H](O)[C@H]3O)[C@H]3COC(=O)[C@H]23)OCO4)cc(OC)c1O [etoposide] | 1.76 | – | – | – | 4.55

— patent US20120245044A1, “METHODS OF DETERMINING CHEMOTHERAPY RESPONSE IN CANCER” (TRANSLATIONAL GENOMICS RESEARCH INSTITUTE, priority 2011, published 2012)
